Measurements as given in patent US6143780A, “N-arylmethylthioanilide compounds useful for the inhibition of the replication of HIV” (Uniroyal Chemical Company, Inc., priority 1999, dated 2000).
In brackets after ≈: the same amount, converted by molar mass. Several values for one entry are separate records, joined by “and”; a condition that tells them apart may be missing. Identical values can stand only once. Like-named read-outs stand apart in the source and are kept apart here.

How the values were obtained:
[1] = tested on: HIV-1 strains containing the 100 Leu→Ile mutation in their RT; conditions: cited from earlier work
HIV-1/188-His = test: inhibition of syncytium formation in CEM cells, HIV-1 RT mutant 188-His; assay type: cell-based; conditions: Human immunodeficiency virus 1, CCRF-CEM, 96 h, read-out: EC50 188-His
Text: (§1) CEM cells were obtained from the American Tissue Cell Culture Collection (Rockville, Md.) . HIV-1 (IIIB) was originally obtained from the culture supernatant of persistently HIV-1-infected H9 cells and was provided by R. C. Gallo and M. Popovic (National Cancer Institute, National Institutes of Health, Bethesda, Md.).
(§2) The selection and characterization of the HIV-1 RT mutant strains were done as follows: HIV-1/100-Ile ("100-Ile") was selected for resistance against TIBO R82150 as described in Balzarini et al, Virology 192: 246-253 (1993); HIV-1/103-Asn ("103-Asn") was selected for resistance against TIBO R82913 as described in Balzarini et al, Virology 192: 246-253 (1993); HIV-1/106-Ala ("106-Ala") was selected for resistance against nevirapine as described in Balzarini et al, J. Virol. 67: 5353-5359 (1993); HIV-1/Lys-138 ("Lys-138") was selected for resistance against TSAO-m^3T as described in Balzarini et al, Virology 192: 246-253 (1993) and Balzarini et al, Proc. Nat. Acad. Sci. USA 90: 6952-6956 (1993); HIV-1/181-Cys ("181-Cys") was selected for resistance against pyridinone L-697,661 as described in Balzarini et al, Virology 192: 246-253 (1993); and HIV-1/188-His ("188-His") was selected for resistance against HEPT as described in Balzarini et al, Mol. Pharmocol. 44: 694-701 (1993). 188-His was then further converted to HIV-1/188-Leu ("188-Leu") upon further passage in cell culture in the absence of the HEPT. HIV-1/101-Glu ("101-Glu") and HIV-1/190-Glu ("190-Glu") were selected for resistance against the thiocarboxanilide derivative designated as UC38 as described in Balzarini et al, Antiviral Research 27: 219-236 (1995). HIV-1/184-Ile ("184-Ile") was selected for resistance against the combination of 3TC and TSAO-m^3 T as described in Balzarini et al, Molecular Pharm. 49: 882-890 (1996). HIV-1/184-Val ("184-Val") was selected for resistance against 3TC as described in Balzarini et al, Molecular Pharm. 49: 882-890 (1996).
(§3) CEM cells were suspended at ≈300,000 cells per ml of culture medium and infected with approximately 100 CCID50 (CCID50 being the 50% cell culture infective dose) of HIV-1(IIIB) (designated as "WT" in Table 3) or one of the HIV-1 RT mutant strains described above. Then 100 μl of the infected cell suspensions was added to 200 μl microtiter plate wells containing 100 μl of appropriate serial (5-fold) dilutions of the test compounds. The inhibitiory effect of the test compounds on HIV-1 induced syncytium formation in CEM cells was examined microscopically on day 4 post infection. The 50% effective concentration (EC50) was defined as the test compound concentration that inhibits syncytium formation in the HIV-1-infected cell cultures by 50%.

HIV-1/181-Cys = test: inhibition of syncytium formation in CEM cells, HIV-1 RT mutant 181-Cys; assay type: cell-based; conditions: Human immunodeficiency virus 1, CCRF-CEM, 96 h, read-out: EC50 181-Cys
Text: as §1, §2, §3

HIV-1/100-Ile = test: inhibition of syncytium formation in CEM cells, HIV-1 RT mutant 100-Ile; assay type: cell-based; conditions: Human immunodeficiency virus 1, CCRF-CEM, 96 h, read-out: EC50 100-Ile
Text: as §1, §2, §3

HIV-1/184-Ile = test: inhibition of syncytium formation in CEM cells, HIV-1 RT mutant 184-Ile; assay type: cell-based; conditions: Human immunodeficiency virus 1, CCRF-CEM, 96 h, read-out: EC50 184-IIe
Text: as §1, §2, §3

HIV-1/106-Ala = test: inhibition of syncytium formation in CEM cells, HIV-1 RT mutant 106-Ala; assay type: cell-based; conditions: Human immunodeficiency virus 1, CCRF-CEM, 96 h, read-out: EC50 106-Ala
Text: as §1, §2, §3

HIV-1 (IIIB) = test: inhibition of HIV-1(IIIB) (WT) induced syncytium formation in CEM cells; assay type: cell-based
Text: as §1, §3

HIV-1/101-Glu = test: inhibition of syncytium formation in CEM cells, HIV-1 RT mutant 101-Glu; assay type: cell-based; conditions: Human immunodeficiency virus 1, CCRF-CEM, 96 h, read-out: EC50 101-Glu
Text: as §1, §2, §3

138-Lys = test: inhibition of syncytium formation in CEM cells, HIV-1 RT mutant 138-Lys; assay type: cell-based; conditions: Human immunodeficiency virus 1, CCRF-CEM, 96 h, read-out: EC50 138-Lys
Text: as §1, §2, §3

HIV-1/190-Glu = test: inhibition of syncytium formation in CEM cells, HIV-1 RT mutant 190-Glu; assay type: cell-based; conditions: Human immunodeficiency virus 1, CCRF-CEM, 96 h, read-out: EC50 190-Glu
Text: as §1, §2, §3

HIV-1/188-Leu = test: inhibition of syncytium formation in CEM cells, HIV-1 RT mutant 188-Leu; assay type: cell-based; conditions: Human immunodeficiency virus 1, CCRF-CEM, 96 h, read-out: EC50 188-Leu
Text: as §1, §2, §3

HIV-1/184-Val = test: inhibition of syncytium formation in CEM cells, HIV-1 RT mutant 184-Val; assay type: cell-based; conditions: Human immunodeficiency virus 1, CCRF-CEM, 96 h, read-out: EC50 184-Val
Text: as §1, §2, §3

103-Ala = test: inhibition of syncytium formation in CEM cells, HIV-1 RT mutant 103-Ala; assay type: cell-based; conditions: Human immunodeficiency virus 1, CCRF-CEM, 96 h, read-out: EC50 103-Ala
[2] = tested on: 181 Tyr→Cys mutation in the RT of HIV-1 strains; conditions: cited from earlier work
[3] = Human immunodeficiency virus 1, IIIB, CCRF-CEM, 96 h, Table 3, HIV-1(IIIB), day 4 post infection, read-out: EC50 WT
[4] = Table 2, day 4 post infection, replicate values, read-out: EC50, Activity Against HIV-1 (IIIB)

For CC(C)=CCN1Cc2cccc3[nH]c(=S)n(c23)CC1C (single isomer, unassigned) [Compound R82150], the “resistance of 100 Leu→Ile mutant strains” value [1] is listed as “resistant”.
In the case of CC(C)=CCN1Cc2cc(Cl)cc3[nH]c(=S)n(c23)CC1C (single isomer, unassigned) [TIBO R82913], the “resistance of 100 Leu→Ile mutant strains” value [1] is listed as “resistant”.
With CCCc1ccccc1OCc1cc(NC(=S)c2ccoc2C)ccc1Cl [Compound 43] the EC50 (HIV-1/188-His) was 0.65 µg/mL, the EC50 (HIV-1/181-Cys) was over 0.4 µg/mL and the EC50 (HIV-1/100-Ile) was 1.14 µg/mL. For the same molecule, the EC50 (HIV-1/184-Ile) was 0.13 µg/mL, the EC50 (HIV-1/106-Ala) was over 2 µg/mL and the EC50 (HIV-1 (IIIB); [3]) was 0.03 µg/mL. The EC50 (HIV-1 (IIIB); [4]) was 42.5 nM and 118 nM, the EC50 (HIV-1/101-Glu) was 1.35 µg/mL and the EC50 (138-Lys) was 0.31 µg/mL. The EC50 (HIV-1/190-Glu) was over 2 µg/mL, the EC50 (HIV-1/188-Leu) was over 2 µg/mL and the EC50 (HIV-1/184-Val) was 0.04 µg/mL. For the same molecule, the EC50 (103-Ala) was over 2 µg/mL.
With CCc1ccccc1OCc1cc(NC(=S)c2ccoc2C)ccc1Cl [Compound 44] the EC50 (HIV-1/188-His) was 0.25 µg/mL, the EC50 (HIV-1/181-Cys) was over 2 µg/mL and the EC50 (HIV-1/100-Ile) was 0.41 µg/mL. The EC50 (HIV-1/184-Ile) was 0.04 µg/mL, the EC50 (HIV-1/106-Ala) was 1.1 µg/mL and the EC50 (HIV-1 (IIIB); [3]) was 0.0065 µg/mL. For the same molecule, the EC50 (HIV-1 (IIIB); [4]) was 30.7 nM and 18 nM and 95.4 nM, the EC50 (HIV-1/101-Glu) was 0.65 µg/mL and the EC50 (138-Lys) was 0.16 µg/mL. The EC50 (HIV-1/190-Glu) was over 2 µg/mL, the EC50 (HIV-1/188-Leu) was 0.35 µg/mL and the EC50 (HIV-1/184-Val) was 0.018 µg/mL. For the same molecule, the EC50 (103-Ala) was over 2 µg/mL.
In the case of Cc1occc1C(=S)Nc1ccc(Cl)c(COc2c(F)ccc(F)c2F)c1 [Compound 45], the EC50 (HIV-1/188-His) is reported as 0.85 µg/mL, the EC50 (HIV-1/181-Cys) is reported as 0.065 µg/mL and the EC50 (HIV-1/100-Ile) is reported as 0.11 µg/mL. For the same molecule, the EC50 (HIV-1/184-Ile) was 0.005 µg/mL, the EC50 (HIV-1/106-Ala) was 0.025 µg/mL and the EC50 (HIV-1 (IIIB); [3]) was 0.0017 µg/mL. For the same molecule, the EC50 (HIV-1/101-Glu) was 0.04 µg/mL, the EC50 (138-Lys) was 0.012 µg/mL and the EC50 (HIV-1/190-Glu) was over 2 µg/mL. It also gave an EC50 (HIV-1/188-Leu) of 1.5 µg/mL, an EC50 (HIV-1/184-Val) of 0.0027 µg/mL and an EC50 (103-Ala) of 0.4 µg/mL (≈ 0.971 µM).
With Cc1occc1C(=S)Nc1ccc(Cl)c(COc2ccccc2C(F)(F)F)c1 [Compound 46] the EC50 (HIV-1/188-His) was 0.16 µg/mL, the EC50 (HIV-1/181-Cys) was 0.5 µg/mL and the EC50 (HIV-1/100-Ile) was 0.11 µg/mL. The EC50 (HIV-1/184-Ile) was 0.018 µg/mL, the EC50 (HIV-1/106-Ala) was 0.47 µg/mL and the EC50 (HIV-1 (IIIB); [3]) was 0.0041 µg/mL. For the same molecule, the EC50 (HIV-1 (IIIB); [4]) was 39.3 nM and 54.8 nM and 9.14 nM, the EC50 (HIV-1/101-Glu) was 0.18 µg/mL and the EC50 (138-Lys) was 0.03 µg/mL. The EC50 (HIV-1/190-Glu) was over 2 µg/mL, the EC50 (HIV-1/188-Leu) was 0.19 µg/mL and the EC50 (HIV-1/184-Val) was 0.0093 µg/mL. The EC50 (103-Ala) was 0.55 µg/mL (≈ 1.29 µM).
Cc1occc1C(=S)Nc1ccc(Cl)c(COc2ccc(F)cc2Cl)c1 [Compound 47] gave an EC50 (HIV-1/188-His) of 2 µg/mL, an EC50 (HIV-1/181-Cys) of 1 µg/mL and an EC50 (HIV-1/100-Ile) of 0.65 µg/mL. It also gave an EC50 (HIV-1/184-Ile) of 0.12 µg/mL, an EC50 (HIV-1/106-Ala) of over 2 µg/mL and an EC50 (HIV-1 (IIIB); Human immunodeficiency virus 1, IIIB, CCRF-CEM, 96 h, Table 2, day 4 post infection, replicate values, read-out: EC50, Activity Against HIV-1 (IIIB)) of 1030 nM. For the same molecule, the EC50 (HIV-1 (IIIB); [3]) was 0.018 µg/mL, the EC50 (HIV-1 (IIIB); [4]) was 516 nM and the EC50 (HIV-1/101-Glu) was 1.47 µg/mL. For the same molecule, the EC50 (138-Lys) was 0.64 µg/mL, the EC50 (HIV-1/190-Glu) was over 2 µg/mL and the EC50 (HIV-1/188-Leu) was over 2 µg/mL. It also gave an EC50 (HIV-1/184-Val) of 0.05 µg/mL and an EC50 (103-Ala) of over 2 µg/mL.
For Cc1ccnc2c1NC(=O)c1cccnc1N2C1CC1 [nevirapine], the “resistance of 181 Tyr→Cys mutant strains” value [2] is listed as “resistant”.
